Reference: patent US20050171203A1, “Pregabalin composition” (Pfizer Inc., priority 2003, published 2005)

Assays:
[1] = system: bacteria; yeasts and molds; E. coli; test: antimicrobial efficacy testing (microbial limit test, European Pharmacopoeia 5th ed.); settings: glycerol as preservative
[2] = storage at 5° C.
[3] = observations on preserved pregabalin compositions (Remarks of Table 1: pH, particles, color, mold); type: physicochemical; settings: sorbic acid used with pregabalin
Source text: Other common preservatives, such as ethanol, are unsuitable for use in pediatric formulations.
In TABLE 1, the annotations “Meets Ph. Eur.” and “Fails Ph. Eur.” refer to whether the test results meet or fail the microbial limit test as defined in the current edition of European Pharmacopoeia (5th ed., 2004): 1000 bacteria per g (max); 100 yeasts and molds per g (max); and free of E. coli.

SMILES	compliance with requirements of European Pharmacopoeia (5th ed., 2004) [1]	behaviour in solution under storage [2]	appearance of the solution [3]	shift in pH [3]
OCC(O)CO [glycerol]	does not comply	precipitated out of solution	–	–
O=C1NS(=O)(=O)c2ccccc21.[Na] [sodium saccharin]	–	remained in solution	–	–
C/C=C/C=C/C(=O)O [sorbic acid]	–	–	discoloration of the solution	5.0
OC[C@@H](O)[C@H](O)[C@@H](O)CO [xylitol]	–	precipitated out of solution	–	–
